# Measurements: US6355799B1, “Substituted benzene compounds, process for their preparation, and herbicidal and defoliant compositions containing them” (ISK Americas Incorporated, priority 1997, dated 2002)
# Columns and labels:
# Assay type in all cases: in vivo
# [1] = tested on: redroot pigweed (Amaranthus retroflexus, AMARE); test: Pre-emerge test, greenhouse herbicide activity screening; conditions: phytotoxicity rating 0-100, 14 days after application
# Procedure, shortened: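 Rating: 0–100 visual injury, 14 DAA. Application: acetone, 187 l/ha, 15–1000 g ai/ha, flat-fan track sprayer with nozzle 40–45 cm above soil or canopy. Post-emerge runs used 0.25% v/v surfactant on 2–3 leaf plants.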
# [2] = tested on: barnyardgrass (Echinochloa crus-galli, ECHCG); test: as above; conditions: phytotoxicity rating 0-100, 14 days after application
# Procedure, shortened: (§1)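 Sandy loam pots; pre-emerge: sown 1 d pre-spray, surface-watered after, then bottom-watered. Post-emerge: sown 8–21 d before, 2–3 leaf stage, + 0.25% v/v NIS, bottom-watered. Acetone, 187 l/ha track spray, 15–1000 g ai/ha. 0–100 injury score, day 14.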
# [3] = tested on: common ragweed (Ambrosia artemisizfolia L., AMBEL); test: as above; conditions: phytotoxicity rating 0-100, 14 days after application
# Procedure, shortened: as §1
# [4] = tested on: green foxtail (Setaria viridis, SETVI); test: as above; conditions: phytotoxicity rating 0-100, 14 days after application
# Procedure, shortened: as §1
# [5] = tested on: ivyleaf morningglory (Ipomoea hederacea, IPOHE); test: as above; conditions: phytotoxicity rating 0-100, 14 days after application
# Procedure, shortened: as §1
# [6] = tested on: johnsongrass (Sorghum halepense, SORHA); test: as above; conditions: phytotoxicity rating 0-100, 14 days after application
# Procedure, shortened: as §1
# [7] = tested on: lambsquarters (Chenopodium album, CHEAL); test: as above; conditions: phytotoxicity rating 0-100, 14 days after application
# Procedure, shortened: as §1
# [8] = tested on: large crabgrass (Digitaria sanguinalis, DIGSA); test: as above; conditions: phytotoxicity rating 0-100, 14 days after application
# Procedure, shortened: as §1
# [9] = tested on: sicklepod (Cassia obtusifolia, CASOB); test: as above; conditions: phytotoxicity rating 0-100, 14 days after application
# Procedure, shortened: as §1
# [10] = tested on: velvetleaf (Abutilon theophrasti, ABUTH); test: as above; conditions: phytotoxicity rating 0-100, 14 days after application
# Procedure, shortened: as §1
# [11] = tested on: field corn (Zea mays L., var. Dekalb 535, CORN); test: Pre-emerge test, crop safety; conditions: crop damage rating 0-100, 14 days after application
# Procedure, shortened: (§2)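 Visual ratings on a 0-100 scale (0 no damage, 100 all plants dead) were taken at 14 days after treatment. Rates of 15-1000 g ai/ha in acetone, 187 l/ha, were sprayed onto soil one day after planting (pre-emerge) or onto 2-3 leaf plants with 0.25% v/v surfactant (post-emerge).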
# [12] = tested on: upland rice (Oryza sp., var. Tebonnet, RICE); test: Pre-emerge test, crop safety; conditions: crop damage rating 0-100, 14 days after application
# Procedure, shortened: as §2
# [13] = tested on: barnyardgrass (Echinochloa crus-galli, ECHCG); test: Post-emerge test, greenhouse herbicide activity screening; conditions: post-emerge, 14 days after application, rating scale 0-100
# Procedure, shortened: (§3)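 Plants grown in 10 cm pots of sandy loam mix received acetone-dissolved compounds through a moving flat-fan nozzle. Doses ranged from 15 to 1000 g ai/ha. Pre-emerge pots were seeded one day earlier, post-emerge pots 8–21 days earlier. Fourteen days on, each pot was graded 0–100 for damage.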
# [14] = tested on: common ragweed (Ambrosia artemisizfolia L., AMBEL); test: as above; conditions: post-emerge, 14 days after application, rating scale 0-100
# Procedure, shortened: as §3
# [15] = tested on: green foxtail (Setaria viridis, SETVI); test: as above; conditions: post-emerge, 14 days after application, rating scale 0-100
# Procedure, shortened: as §3
# [16] = tested on: ivyleaf morningglory (Ipomoea hederacea, IPOHE); test: as above; conditions: post-emerge, 14 days after application, rating scale 0-100
# Procedure, shortened: as §3
# [17] = tested on: johnsongrass (Sorghum halepense, SORHA); test: as above; conditions: post-emerge, 14 days after application, rating scale 0-100
# Procedure, shortened: as §3
# [18] = tested on: lambsquarters (Chenopodium album, CHEAL); test: as above; conditions: post-emerge, 14 days after application, rating scale 0-100
# Procedure, shortened: as §3
# [19] = tested on: large crabgrass (Digitaria sanguinalis, DIGSA); test: as above; conditions: post-emerge, 14 days after application, rating scale 0-100
# Procedure, shortened: as §3
# [20] = tested on: redroot pigweed (Amaranthus retroflexus, AMARE); test: as above; conditions: post-emerge, 14 days after application
# Procedure, shortened: as §3
# [21] = tested on: sicklepod (Cassia obtusifolia, CASOB); test: as above; conditions: post-emerge, 14 days after application, rating scale 0-100
# Procedure, shortened: as §3
# [22] = tested on: velvetleaf (Abutilon theophrasti, ABUTH); test: as above; conditions: post-emerge, 14 days after application, rating scale 0-100
# Procedure, shortened: as §3
# [23] = tested on: field corn (Zea mays L., var. Dekalb 535, CORN); test: Post-emerge test, crop safety; conditions: post-emerge, 14 days after application, rating scale 0-100
# Procedure, shortened: as §1
# [24] = tested on: upland rice (Oryza sp., var. Tebonnet, RICE); test: Post-emerge test, crop safety; conditions: post-emerge, 14 days after application, rating scale 0-100
# Procedure, shortened: as §1
smiles,measurement,setting,value
"Cn1c(C(F)(F)F)cc(=O)n(-c2c(F)cc(Cl)c(O)c2NC(=O)c2ccc3ccccc3c2)c1=O [Compound 2-194, 2-(2,4-chloro-6-fluoro-3-hydroxy-2-naphthoylamidophenyl)-1-methyl-6-trifluoromethyl-2,4(1H, 3H)-pyrimidinedione]",Pre-emerge Herbicidal Activity AMARE,[1]; 63 g ai/ha,75
same,Pre-emerge Herbicidal Activity AMARE,[1]; 250 g ai/ha,100
same,Pre-emerge Herbicidal Activity ECHCG,[2]; 63 g ai/ha,0
same,Pre-emerge Herbicidal Activity ECHCG,[2]; 250 g ai/ha,0
same,Pre-emerge Herbicidal Activity AMBEL,[3]; 63 g ai/ha,0
same,Pre-emerge Herbicidal Activity AMBEL,[3]; 250 g ai/ha,0
same,Pre-emerge Herbicidal Activity SETVI,[4]; 63 g ai/ha,0
same,Pre-emerge Herbicidal Activity SETVI,[4]; 250 g ai/ha,20
same,Pre-emerge Herbicidal Activity IPOHE,[5]; 63 g ai/ha,0
same,Pre-emerge Herbicidal Activity IPOHE,[5]; 250 g ai/ha,20
same,Pre-emerge Herbicidal Activity SORHA,[6]; 63 g ai/ha,0
same,Pre-emerge Herbicidal Activity SORHA,[6]; 250 g ai/ha,0
same,Pre-emerge Herbicidal Activity CHEAL,[7]; 63 g ai/ha,40
same,Pre-emerge Herbicidal Activity CHEAL,[7]; 250 g ai/ha,85
same,Pre-emerge Herbicidal Activity DIGSA,[8]; 63 g ai/ha,0
same,Pre-emerge Herbicidal Activity DIGSA,[8]; 250 g ai/ha,10
same,Pre-emerge Herbicidal Activity CASOB,[9]; 63 g ai/ha,0
same,Pre-emerge Herbicidal Activity CASOB,[9]; 250 g ai/ha,10
same,Pre-emerge Herbicidal Activity ABUTH,[10]; 63 g ai/ha,90
same,Pre-emerge Herbicidal Activity ABUTH,[10]; 250 g ai/ha,100
same,Pre-emerge Herbicidal Activity CORN,[11]; 63 g ai/ha,0
same,Pre-emerge Herbicidal Activity CORN,[11]; 250 g ai/ha,0
same,Pre-emerge Herbicidal Activity RICE,[12]; 63 g ai/ha,0
same,Pre-emerge Herbicidal Activity RICE,[12]; 250 g ai/ha,10
same,phytotoxicity rating ECHCG,[13]; 63 g ai/ha,0
same,phytotoxicity rating ECHCG,[13]; 250 g ai/ha,10
same,phytotoxicity rating AMBEL,[14]; 63 g ai/ha,95
same,phytotoxicity rating AMBEL,[14]; 250 g ai/ha,90
same,phytotoxicity rating SETVI,[15]; 63 g ai/ha,20
same,phytotoxicity rating SETVI,[15]; 250 g ai/ha,20
same,phytotoxicity rating IPOHE,[16]; 63 g ai/ha,95
same,phytotoxicity rating IPOHE,[16]; 250 g ai/ha,99
same,phytotoxicity rating SORHA,[17]; 63 g ai/ha,0
same,phytotoxicity rating SORHA,[17]; 250 g ai/ha,10
same,phytotoxicity rating CHEAL,[18]; 63 g ai/ha,90
same,phytotoxicity rating CHEAL,[18]; 250 g ai/ha,100
same,phytotoxicity rating DIGSA,[19]; 63 g ai/ha,0
same,phytotoxicity rating DIGSA,[19]; 250 g ai/ha,20
same,phytotoxicity rating AMARE,"[20]; 63 g ai/ha, rating scale 0-100 (0 no damage, 100 complete death)",99
same,phytotoxicity rating AMARE,"[20]; 250 g ai/ha, rating scale 0-100",99
same,phytotoxicity rating CASOB,[21]; 63 g ai/ha,50
same,phytotoxicity rating CASOB,[21]; 250 g ai/ha,70
same,phytotoxicity rating ABUTH,[22]; 63 g ai/ha,95
same,phytotoxicity rating ABUTH,[22]; 250 g ai/ha,100
same,phytotoxicity rating CORN (crop damage),[23]; 63 g ai/ha,5
same,phytotoxicity rating CORN (crop damage),[23]; 250 g ai/ha,5
same,phytotoxicity rating RICE (crop damage),[24]; 63 g ai/ha,30
same,phytotoxicity rating RICE (crop damage),[24]; 250 g ai/ha,40
